The values below are quoted from earlier work in patent US7585955B2, “Protein separation from a protein mixture” (Florida State University Research Foundation, Inc, priority 2005, dated 2009).

The conditions of this data set: for pKa1 / pKa2: polyprotic buffer component.

Take `CC(N)CN` (centres unmarked) [1,2-propanediamine]: the pKa1 entry was “about 9.80” and the pKa2 entry is recorded as “about 6.60”. As for `Cc1ccc2ccccc2n1` [2-methylquinoline], the pKa entry is “about 5.80”. On to `O=C(O)CCCl` [3-chloropropanoic acid], for which the pKa entry was “about 3.98”.

Turning to `Nc1ccc(N=Nc2ccccc2)cc1` [4-aminoazobenzene], the pKa entry is “about 2.82”. For `Cc1ccnc2ccccc12` [4-methylquinoline], the pKa entry is reported as “about 5.70”. As to `Cc1cccc2ncccc12` [5-methylquinoline], the pKa entry is “about 5.20”. As for `Clc1cnc2ncncc2n1` [6-chloropteridine], the pKa result was “about 3.70”.

With `Oc1ccc2ccncc2c1` [7-isoquinolinol], the pKa1 entry is recorded as “about 8.90” and the pKa2 result is recorded as “about 5.70”. In the case of `CN(C)CC(=O)O` [N,N-dimethylglycine], the pKa entry was “about 9.90”.

For the compound `CC(=O)NCC(=O)O` [N-acetylglycine], the pKa result is “about 3.70”.

With `CCNc1ccccc1` [N-ethylaniline], the pKa entry is on record as “about 5.10”. On to `CC(=O)CC(=O)O` [acetoacetic acid], for which the pKa result is on record as “about 3.60”. With `c1ccc2nc3ccccc3cc2c1` [acridine], the pKa result is “about 5.60”. On to `O=C(O)c1cncc(C(=O)O)c1` [dinicotinic acid], for which the pKa result is “about 2.80”. In the case of `N=C(N)NCC(=O)O` [glycocyamine], the pKa entry is “about 2.80”. On to `O=C(O)CCCCCC(=O)O` [heptanedioic acid], for which the pKa1 result is “about 5.60” and the pKa2 entry is on record as “about 4.70”. In the case of `NCCc1c[nH]cn1` [histamine], the pKa1 result is on record as “about 9.80” and the pKa2 result is on record as “about 6.00”. Regarding `c1ccc2cnccc2c1` [isoquinoline], the pKa entry was “about 5.40”. Consider `CC(O)C(=O)O` (centres unmarked) [lactic acid], for which the pKa entry is recorded as “about 3.80”. For the compound `NC[C@H](O)c1ccc(O)c(O)c1` [noradrenaline], the pKa1 result was “about 9.70” and the pKa2 result is “about 8.60”.

In the case of `Nc1nccs1` [thiazolamine], the pKa entry is listed as “about 5.30”. In the case of `CN(C)C` [trimethylamine], the pKa entry is “about 9.80”. For the compound `O=c1[nH]c(=O)c2[nH]c(=O)[nH]c2[nH]1` [uric acid], the pKa result is on record as “about 3.90”. Take chloroaniline: the pKa result was “about 2.80”.
